Results from paper PMC12368479, “Inhibition of the Clathrin Terminal Domain—Amphiphysin Protein–Protein Interaction. Probing the Pitstop 2 Aromatic Moiety” (Chemmedchem, 2025).
Read-outs that look alike come from different tables or passages of the source.

Tests used:
[1] = molecular target: T1, clathrin heavy chain NTD (amino acids 1–364) – amphiphysin 1 B/C domain protein–protein interaction (NTD‐PPI) (Homo sapiens, UniProt Q00610); assay: ELISA-based clathrin inhibitor binding assay (NTD-PPI)
T1 construct: GST‐tagged clathrin heavy chain NTD (amino acids 1–364); made in house
T1 sequence (Q00610 1-364): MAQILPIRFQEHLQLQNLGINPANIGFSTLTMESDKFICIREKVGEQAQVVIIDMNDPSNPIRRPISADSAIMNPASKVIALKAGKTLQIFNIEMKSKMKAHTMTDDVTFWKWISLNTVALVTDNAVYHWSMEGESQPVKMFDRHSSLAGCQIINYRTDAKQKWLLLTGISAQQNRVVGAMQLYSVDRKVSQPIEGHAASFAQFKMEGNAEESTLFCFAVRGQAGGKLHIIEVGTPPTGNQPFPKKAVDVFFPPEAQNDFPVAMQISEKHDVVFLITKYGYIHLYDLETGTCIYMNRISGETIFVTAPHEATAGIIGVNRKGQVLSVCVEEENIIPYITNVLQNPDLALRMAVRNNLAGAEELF
Description: The clathrin inhibitor assay was based inhibition of protein–protein interaction (PPI) between clathrin and amphiphysin as described in our previous report.^[ [45], [54] ^] Bacterially expressed recombinant purified His6‐tagged amphiphysin 1 B/C domain (which comprises both the clathrin and the AP‐2 binding sites, amino acids 250‐578^[ [55] ^]) in screening buffer (20 mM HEPES, pH 7.4, 50 mM NaCl, 1 mM DTT, 1 mM PMSF) was added to a 384 well ELISA plate (Corning Maxisorp 3700) and bound to the plastic for 1 h at room temperature. […] Following extensive washes (with 20 mM HEPES, pH 7.4, 50 mM NaCl, 0.05% Tween 20), chemical compounds diluted in DMSO (10 μL) were added and incubated together with bacterially expressed recombinant GST‐tagged clathrin heavy chain NTD (amino acids 1–364) for 1 h at room temperature in screening buffer. After 3 washes, horseradish peroxidase‐coupled anti‐GST antibodies were added in screening buffer and the plate incubated for 40 min at room temperature. Following additional washes, 50 μL TMB (3,3′,5,5′‐tetramethylbenzidine) (Pierce Biotechnology) chromogenic substrate of horseradish peroxidase was added, and the plate was incubated for 10 min before the reaction was terminated by adding 50 μL 1N sulfuric acid to produce a yellow colour. The amount of bound protein was determined by spectrophotometric measurement in a plate reader. Relative binding was calculated as a percentage of DMSO control.

[2] = molecular target: T2, full length human Dynamin I (Homo sapiens, UniProt Q05193); assay: Dynamin GTPase activity, Malachite Green phosphate detection assay; type: biochemical
T2 construct: full length human Dynamin I expressed in Sf21 insect cells; made in house; host or cells: Sf21 insect cells
T2 sequence (Q05193 1-864): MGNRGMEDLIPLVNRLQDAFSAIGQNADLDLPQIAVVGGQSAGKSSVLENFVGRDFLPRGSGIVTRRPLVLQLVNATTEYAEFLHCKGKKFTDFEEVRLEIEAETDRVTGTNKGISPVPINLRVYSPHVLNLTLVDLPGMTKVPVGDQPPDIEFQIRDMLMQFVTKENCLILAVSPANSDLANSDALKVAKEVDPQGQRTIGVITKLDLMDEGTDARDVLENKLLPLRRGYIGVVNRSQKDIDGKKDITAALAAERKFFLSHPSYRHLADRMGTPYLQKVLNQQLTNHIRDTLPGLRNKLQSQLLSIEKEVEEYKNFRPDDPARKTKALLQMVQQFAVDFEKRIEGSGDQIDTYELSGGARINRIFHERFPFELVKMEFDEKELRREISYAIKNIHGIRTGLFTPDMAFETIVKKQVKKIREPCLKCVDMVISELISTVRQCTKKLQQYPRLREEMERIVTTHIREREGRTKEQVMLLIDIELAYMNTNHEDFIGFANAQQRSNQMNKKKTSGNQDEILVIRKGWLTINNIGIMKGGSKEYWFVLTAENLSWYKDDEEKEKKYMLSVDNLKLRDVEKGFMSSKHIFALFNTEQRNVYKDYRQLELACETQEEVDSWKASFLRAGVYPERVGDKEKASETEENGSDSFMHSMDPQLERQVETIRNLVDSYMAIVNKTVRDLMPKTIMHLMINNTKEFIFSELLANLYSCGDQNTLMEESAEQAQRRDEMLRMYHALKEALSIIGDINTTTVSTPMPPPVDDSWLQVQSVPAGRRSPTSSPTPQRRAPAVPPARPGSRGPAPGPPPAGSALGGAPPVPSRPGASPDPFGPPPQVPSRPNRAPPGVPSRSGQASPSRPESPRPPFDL
Description: Dynamin GTPase activity was determined in vitro using the Malachite Green phosphate detection absorbance‐based assay within a 96‐well plate format as described previously. The enzyme source was full length human Dynamin I expressed in Sf21 insect cells and affinity‐purified on GST‐Amph2‐SH3 (rat Amphiphysin 2 (494–588)).^[ [56] ^]

[3] = Table 3, library 3, ELISA, average of duplicate measurements (n = 2), read-out: NTD‐PPI IC50
[4] = Table 2, library 2, n = 3, triplicate, '–' = not active at 100 μM, read-out: Dyn 1 IC50
[5] = Table 1, library 1, ELISA, average of duplicate measurements (n=2), read-out: NTD‐PPI IC50
[6] = Table 1, library 1, n = 1 unless noted (19: n = 2), '–' = not active at 150 μM, read-out: Dyn 1 IC50
[7] = Table 2, library 2, ELISA, average of duplicate measurements (n=2), read-out: NTD‐PPI IC50
[8] = values quoted in running text (section 2.2), read-out: Dynamin IC50

SMILES	IC50 [2, 4] [µM]	IC50 [2, 6] [µM]	other results
CCCCCCC/C=C1\SC(NS(=O)(=O)c2cccc3ccccc23)=NC1=O [compound 43, (Z)‐N‐(5‐octylidene‐4‐oxo‐4,5‐dihydrothiazol‐2‐yl)naphthalene‐1‐sulfonamide]	–	–	IC50 [1, 3]: 5.9 µM
O=C1N=C(NS(=O)(=O)c2cccc3ccccc23)S/C1=C\c1ccc(O)c(O)c1 [compound 27, (Z)‐N‐(5‐(3,4‐dihydroxybenzylidene)‐4‐oxo‐4,5‐dihydrothiazol‐2‐yl)naphthalene‐1‐sulfonamide]	50.4 ± 8.4	–	–
O=C1N=C(NS(=O)(=O)c2cccc3ccccc23)SC1=Cc1cccc(-c2ccccc2)c1 [compound 17, N‐(5‐([1,1'‐biphenyl]‐3‐ylmethylene)‐4‐oxo‐4,5‐dihydrothiazol‐2‐yl)naphthalene‐1‐sulfonamide]	–	> 150	IC50 [1, 5]: 4.02 µM
CC(C)c1ccc(/C=C2\SC(NS(=O)(=O)c3cccc4ccccc34)=NC2=O)cc1 [compound 21, (Z)‐N‐(5‐(4‐isopropylbenzylidene)‐4‐oxo‐4,5‐dihydrothiazol‐2‐yl)naphthalene‐1‐sulfonamide]	–	> 150	IC50 [1, 5]: 4.1 µM
O=C1N=C(NS(=O)(=O)c2cccc3ccccc23)SC1=Cc1ccccc1-c1ccccc1 [compound 16, N‐(5‐([1,1'‐biphenyl]‐2‐ylmethylene)‐4‐oxo‐4,5‐dihydrothiazol‐2‐yl)naphthalene‐1‐sulfonamide]	–	> 150	–
O=C1N=C(NS(=O)(=O)c2cccc3ccccc23)S/C1=C\C1CC=CCC1 (stereo not shown) [compound 39, (Z)‐N‐(5‐(cyclohex‐3‐en‐1‐ylmethylene)‐4‐oxo‐4,5‐dihydrothiazol‐2‐yl)naphthalene‐1‐sulfonamide]	–	–	IC50 [1, 3]: 4.3 µM
CC(=O)Nc1ccc(/C=C2\SC(NS(=O)(=O)c3cccc4ccccc34)=NC2=O)cc1 [compound 19, (Z)‐N‐(4‐((2‐(naphthalene‐1‐sulfonamido)‐4‐oxothiazol‐5(4H)‐ylidene)methyl)phenyl)acetamide]	–	93 ± 2.5	IC50 [1, 5]: 3.5 µM; IC50 [2, 8]: 92.7 µM
O=C1N=C(NS(=O)(=O)c2cccc3ccccc23)S/C1=C\c1ccc(Cl)cc1Cl [compound 35, (Z)‐N‐(5‐(2,4‐dichlorobenzylidene)‐4‐oxo‐4,5‐dihydrothiazol‐2‐yl)naphthalene‐1‐sulfonamide]	66.8	–	IC50 [1, 7]: 1.5 µM
O=C1N=C(NS(=O)(=O)c2cccc3ccccc23)S/C1=C\c1cc(O)ccc1O [compound 26, (Z)‐N‐(5‐(2,5‐dihydroxybenzylidene)‐4‐oxo‐4,5‐dihydrothiazol‐2‐yl)naphthalene‐1‐sulfonamide]	70 ± 5.3	–	–
COc1cccc(/C=C2\SC(NS(=O)(=O)c3cccc4ccccc34)=NC2=O)c1OC [compound 29, (Z)‐N‐(5‐(2,3‐dimethoxybenzylidene)‐4‐oxo‐4,5‐dihydrothiazol‐2‐yl)naphthalene‐1‐sulfonamide]	> 100	–	–
CN1CCOc2cc(/C=C3\SC(NS(=O)(=O)c4cccc5ccccc45)=NC3=O)ccc21 [compound 53, (Z)‐N‐(5‐((4‐methyl‐3,4‐dihydro‐2H‐benzo[b][1,4]oxazin‐7‐yl)methylene)‐4‐oxo‐4,5‐dihydrothiazol‐2‐yl)naphthalene‐1‐sulfonamide]	–	–	NTD‐PPI activity relative to 54 ([1]; ELISA, in words): threefold less active; IC50 ([1]; Table 4, library 4, ELISA, average of duplicate measurements (n = 2), read-out: NTD‐PPI IC50): 3.3 µM; IC50 ([1]; read-out: NTD‐PPI IC50 (ELISA)): < 5 µM; IC50 ([2]; Table 4, library 4, n = 1 or n = 2 as footnoted, '–' = not active at 100 μM, read-out: Dynamin 1 IC50): 100.7 ± 1 µM
CCCc1ccc(/C=C2\SC(NS(=O)(=O)c3cccc4ccccc34)=NC2=O)cc1 [compound 22, (Z)‐N‐(4‐oxo‐5‐(4‐propylbenzylidene)‐4,5‐dihydrothiazol‐2‐yl)naphthalene‐1‐sulfonamide]	–	~91	IC50 [2, 8]: 91 µM
O=C1N=C(NS(=O)(=O)c2cccc3ccccc23)S/C1=C\C1CCCCC1 [compound 40, (Z)‐N‐(5‐(cyclohexylmethylene)‐4‐oxo‐4,5‐dihydrothiazol‐2‐yl)naphthalene‐1‐sulfonamide]	–	–	IC50 ([2]; Table 3, library 3, n = 1 unless otherwise stated (41, 42: n = 2), '–' = not active at 100 μM, read-out: Dynamin 1 IC50): > 100 µM
CCCCc1ccc(/C=C2\SC(NS(=O)(=O)c3cccc4ccccc34)=NC2=O)cc1 [compound 23, (Z)‐N‐(5‐(4‐butylbenzylidene)‐4‐oxo‐4,5‐dihydrothiazol‐2‐yl)naphthalene‐1‐sulfonamide]	–	~103	IC50 [2, 8]: 103 µM
COc1cc(/C=C2\SC(NS(=O)(=O)c3cccc4ccccc34)=NC2=O)cc(OC)c1 [compound 32, (Z)‐N‐(5‐(3,5‐dimethoxybenzylidene)‐4‐oxo‐4,5‐dihydrothiazol‐2‐yl)naphthalene‐1‐sulfonamide]	> 100	–	–
O=C1N=C(NS(=O)(=O)c2cccc3ccccc23)S/C1=C\c1ccc(F)c(F)c1 [compound 38, (Z)‐N‐(5‐(3,4‐difluorobenzylidene)‐4‐oxo‐4,5‐dihydrothiazol‐2‐yl)naphthalene‐1‐sulfonamide]	> 100	–	–
CC(C)(C)c1ccc(/C=C2\SC(NS(=O)(=O)c3cccc4ccccc34)=NC2=O)cc1 [compound 20, (Z)‐N‐(5‐(4‐(tert‐butyl)benzylidene)‐4‐oxo‐4,5‐dihydrothiazol‐2‐yl)naphthalene‐1‐sulfonamide]	–	> 150	–

Second part, led by results:

IC50 [2, 4] [µM]	IC50 [2, 6] [µM]	SMILES	other results
91	–	COc1ccc(/C=C2\SC(NS(=O)(=O)c3cccc4ccccc34)=NC2=O)cc1OC [compound 31, (Z)‐N‐(5‐(3,4‐dimethoxybenzylidene)‐4‐oxo‐4,5‐dihydrothiazol‐2‐yl)naphthalene‐1‐sulfonamide]	IC50 [1, 7]: 2.2 µM
34.3 ± 3.4	–	O=C1N=C(NS(=O)(=O)c2cccc3ccccc23)S/C1=C\c1ccc(O)c(O)c1O [compound 28, (Z)‐N‐(4‐oxo‐5‐(2,3,4‐trihydroxybenzylidene)‐4,5‐dihydrothiazol‐2‐yl)naphthalene‐1‐sulfonamide]	–
61.2 ± 7.5	–	O=C1N=C(NS(=O)(=O)c2cccc3ccccc23)S/C1=C\c1ccc(O)cc1O [compound 25, (Z)‐N‐(5‐(2,4‐dihydroxybenzylidene)‐4‐oxo‐4,5‐dihydrothiazol‐2‐yl)naphthalene‐1‐sulfonamide]	–
95.1 ± 7.4	–	O=C1N=C(NS(=O)(=O)c2cccc3ccccc23)S/C1=C\c1ccc(Cl)c(Cl)c1 [compound 36, (Z)‐N‐(5‐(3,4‐dichlorobenzylidene)‐4‐oxo‐4,5‐dihydrothiazol‐2‐yl)naphthalene‐1‐sulfonamide]	IC50 [1, 7]: 4.1 µM
–	> 150	N#Cc1ccc(/C=C2\SC(NS(=O)(=O)c3cccc4ccccc34)=NC2=O)cc1 [compound 11, (Z)‐N‐(5‐(4‐cyanobenzylidene)‐4‐oxo‐4,5‐dihydrothiazol‐2‐yl)naphthalene‐1‐sulfonamide]	–
